Values after ≈ are worked out from the molar mass of the structure shown.
Tests used:
Assay type in all cases: functional
[1] = tested on: Mycobacterium tuberculosis; assay: Antitubercular activity against wild-type isoniazid-resistant Mycobacterium tuberculosis harboring katG mutant after 5 days by microplate alamar blue assay
[2] = tested on: Mycobacterium tuberculosis; assay: Antitubercular activity against Mycobacterium tuberculosis SR 2571/0215 harboring katG mutant after 5 days by microplate alamar blue assay
[3] = tested on: Mycobacterium tuberculosis; assay: Antitubercular activity against isoniazid and rifampicin-resistant Mycobacterium tuberculosis T113/09 harboring katG and rpoB mutant after 5 days by microplate alamar blue assay

SMILES	MIC [1] [µM]	MIC [2] [µM]	MIC [3] [µM]
CC(=O)Nc1ccc(Cl)cc1C(F)(F)C(=O)NNC(=O)c1ccncc1	136.6 (≈ 52.3 µg/mL)		
CC(=O)Nc1ccccc1C(=O)C(=O)NNC(=O)c1ccncc1	19.2 (≈ 6.27 µg/mL)	38.3 (≈ 12.5 µg/mL)	38.3 (≈ 12.5 µg/mL)
CC(=O)Nc1ccccc1C(F)(F)C(=O)NNC(=O)c1ccncc1	143.7 (≈ 50.1 µg/mL)	287.4 (≈ 100 µg/mL)	287.4 (≈ 100 µg/mL)
CC(=O)Nc1ccc(F)cc1C(F)(F)C(=O)NNC(=O)c1ccncc1	130.9 (≈ 47.9 µg/mL)		
O=C(CCl)Nc1ccccc1C(=O)C(=O)NNC(=O)c1ccncc1		69.4 (≈ 25 µg/mL)	34.7 (≈ 12.5 µg/mL)
CC(=O)Nc1ccc(C)cc1C(F)(F)C(=O)NNC(=O)c1ccncc1	138.1 (≈ 50 µg/mL)	>276.2	276.2 (≈ 100 µg/mL)
CC(=O)Nc1ccc(C)cc1C(=O)C(=O)NNC(=O)c1ccncc1		36.7 (≈ 12.5 µg/mL)	36.7 (≈ 12.5 µg/mL)
NNC(=O)c1ccncc1 [ISONIAZID]	>80	116.8 (≈ 16 µg/mL)	58.4 (≈ 8.01 µg/mL)

Reference: ChEMBL document CHEMBL4196010, “New hydrazides derivatives of isoniazid against Mycobacterium tuberculosis: Higher potency and lower hepatocytotoxicity” (Eur J Med Chem, 2018)
